Reference: US20100021893A1, “Modulators of lanosterol synthetase for treating acne or hyperseborrhea” (GALDERMA RESEARCH & DEVELOPMENT, priority 2006, published 2010)

Test system: mRNA for lanosterol synthetase in the mouse preputial gland
Details: gonadectomized male mice, short-term treatment, Affymetrix, effect visible at 18, 24 and 96 hours
Description: The expression of the genes was analyzed on an Affymetrix station (microfluidic model; hybridization oven; scanner; computer) following the protocols provided by the company. Briefly, the total RNA isolated from the tissues is transcribed to cDNA. From the double-stranded cDNA, a cRNA labeled with biotin is synthesized using T7 polymerase and a precursor NTP conjugated to biotin. The cRNAs are then fragmented to small sized fragments. All the molecular biology steps are checked using the Agilent “Lab on a chip” system in order to confirm the good efficiencies of the enzymatic reactions. The Affymetrix chip is hybridized with the biotinylated cRNA, rinsed and then fluorescence labeled using a fluorophore conjugated to streptavidin. After washings, the chip is scanned and the results are calculated using the MAS5 software provided by Affymetrix. An expression value is obtained for each gene as well as the indication of the significance of the value obtained. […]
The gene expression was analyzed using the Affymetrix technology described above (FIG. 1A) and the results were then confirmed by the real-time PCR technique (FIG. 1B).
B. Male mice were gonadectomized and were then treated with the vehicle or DHT. […] The RNA was isolated and the expression of the genes was analyzed by the Affymetrix technique. […]

**Q.** For `C[C@]12CCC(=O)C[C@@H]1CC[C@@H]1[C@@H]2CC[C@]2(C)[C@@H](O)CC[C@@H]12` [DHT, Dihydrotestosterone], which “level of expression of the mRNA for lanosterol synthetase” value is on record?
**A.** induced
